According to patent US9156831B2, “Chemical compounds” (ASTRAZENECA AB, priority 2013, dated 2015):

Legend:
[1] = system: MCF7 xenograft; test: Tumour growth inhibition, MCF7 xenograft model; assay type: in vivo, mouse; conditions: Example 3 alone 25 mg/kg twice daily every day; FIG. 12
Procedure: MCF7 is an estrogen receptor positive breast tumour cell line carrying a mutation in the PIKC3CA gene (E545K). […] SCID mice (AZ UK) were transplanted subcutaneously (s.c.) with human breast adenocarcinoma cell line MCF7 (ICRF London) to determine anti-tumour activity of PI3 kinase inhibitors. Mice were implanted with a 0.5 mg 21 day oestrogen pellet (Innovative Research of America) 24 hours prior to cell implantation. 5×10^6 cells in 50% matrigel (BD Bioscience) were injected s.c. on the left flank of the animals.
Animals were randomised into groups of 10-15 when tumours reached a volume of ˜200-300 mm^3 and treatment commenced. Animals were dosed for 3-4 weeks by peroral route, with compound in a suitable vehicle at defined doses and schedules. Tumours were measured two-three times weekly by caliper and volume of tumours calculated using elliptical formula (pi/6×width×width×length).

[2] = system: H596; test: Cell proliferation assay (MTS); assay type: cell-based, human
Procedure: (§1) The sensitivity of a panel of human cancer cell lines to the effects of compounds was determined in a standard proliferation assay.
(§2) Cells were plated in 96 well plates at densities of 1000-6000 cells per well in RPMI media containing 10% FBS. After incubation at 37° C. for 16 hours, various concentrations of compound were added to the assay plates. After incubation for an additional 72 h, the viable cells were determined by the addition of MTS reagent (Promega #3582) to each well for 2 h. MTS is a tetrazolium salt that is bioreduced by metabolically active cells in the presence of an electron coupling reagent to formazan. The formazan product was then quantitated by absorbance at 490 nm, as an indicator of the relative number of live cells. In order to determine the GI50 (concentration at which growth of cells was inhibited by 50%) the relative number of cells present at the time of drug addition was determined by comparison with the MTS readout before the drug was added, and this value was subtracted from the 72 hr value of untreated cells as a measure of cell growth during the assay.

[3] = system: HRA19; test: Cell proliferation assay (MTS); assay type: cell-based, human
Procedure: (§3) The sensitivity of a panel of human cancer cell lines to the effects of compounds was determined in a standard proliferation assay. Cell lines were sourced through the AstraZeneca Cell Bank.
as §2

[4] = system: TCCSUP; test: Cell proliferation assay (MTS); assay type: cell-based, human
Procedure: as §1, §2

[5] = system: OVCAR3; test: Cell proliferation assay (MTS); assay type: cell-based, human
Procedure: as §1, §2

[6] = system: SKBR3; test: Cell proliferation assay (MTS); assay type: cell-based, human
Procedure: as §1, §2

[7] = system: H2085; test: Cell proliferation assay (MTS); assay type: cell-based, human
Procedure: as §1, §2

[8] = system: NOMO1; test: Cell proliferation assay (MTS); assay type: cell-based, human
Procedure: as §1, §2

[9] = system: BT20; test: Cell proliferation assay (MTS); assay type: cell-based, human
Procedure: as §3, §2

[10] = system: SW403; test: Cell proliferation assay (MTS); assay type: cell-based, human
Procedure: as §1, §2

[11] = system: LNCAPCLONEFGC; test: Cell proliferation assay (MTS); assay type: cell-based, human
Procedure: as §3, §2

[12] = system: MOLP8; test: Cell proliferation assay (MTS); assay type: cell-based, human
Procedure: as §3, §2

[13] = system: DMS114; test: Cell proliferation assay (MTS); assay type: cell-based, human
Procedure: as §3, §2

[14] = system: CFPAC1; test: Cell proliferation assay (MTS); assay type: cell-based, human
Procedure: as §3, §2

[15] = system: RKO; test: Cell proliferation assay (MTS); assay type: cell-based, human
Procedure: as §1, §2

[16] = system: SW1710; test: Cell proliferation assay (MTS); assay type: cell-based, human
Procedure: as §1
(§4) Cells were plated in 96 well plates at densities of 1000-6000 cells per well in RPMI media containing 10% FBS. After incubation at 37° C. for 16 hours, various concentrations of compound were added to the assay plates. After incubation for an additional 72 h, the viable cells were determined by the addition of MTS reagent (Promega #3582) to each well for 2 h. […] The formazan product was then quantitated by absorbance at 490 nm, as an indicator of the relative number of live cells. In order to determine the GI50 (concentration at which growth of cells was inhibited by 50%) the relative number of cells present at the time of drug addition was determined by comparison with the MTS readout before the drug was added, and this value was subtracted from the 72 hr value of untreated cells as a measure of cell growth during the assay.

[17] = system: PANC1; test: Cell proliferation assay (MTS); assay type: cell-based, human
Procedure: as §1, §4

[18] = system: 647V; test: Cell proliferation assay (MTS); assay type: cell-based, human
Procedure: as §1, §4

[19] = system: BEL7405; test: Cell proliferation assay (MTS); assay type: cell-based, human
Procedure: as §3, §2

[20] = system: OE33; test: Cell proliferation assay (MTS); assay type: cell-based, human
Procedure: as §1, §4

[21] = system: SCABER; test: Cell proliferation assay (MTS); assay type: cell-based, human
Procedure: as §3, §2

[22] = system: MCF7MDR+; test: Cell proliferation assay (MTS); assay type: cell-based, human
Procedure: as §3, §2

[23] = system: CALU1; test: Cell proliferation assay (MTS); assay type: cell-based, human
Procedure: as §1, §2

[24] = system: BT549; test: Cell proliferation assay (MTS); assay type: cell-based, human
Procedure: as §1, §4

[25] = system: NAMALWA; test: Cell proliferation assay (MTS); assay type: cell-based, human
Procedure: as §1, §4

[26] = system: H460DNP53; test: Cell proliferation assay (MTS); assay type: cell-based, human
Procedure: as §1, §2

[27] = system: SNU5; test: Cell proliferation assay (MTS); assay type: cell-based, human
Procedure: as §1, §4

[28] = system: HCC1395; test: Cell proliferation assay (MTS); assay type: cell-based, human
Procedure: as §1, §4

[29] = system: MDAMB231; test: Cell proliferation assay (MTS); assay type: cell-based, human
Procedure: as §1, §4

[30] = system: SNU739; test: Cell proliferation assay (MTS); assay type: cell-based, human
Procedure: as §3, §2

[31] = system: 1A6; test: Cell proliferation assay (MTS); assay type: cell-based, human
Procedure: as §1, §2

[32] = system: H460; test: Cell proliferation assay (MTS); assay type: cell-based, human
Procedure: as §1, §2

[33] = system: H526; test: Cell proliferation assay (MTS); assay type: cell-based, human
Procedure: as §1, §2

[34] = system: JVM3; test: Cell proliferation assay (MTS); assay type: cell-based, human
Procedure: as §1, §2

[35] = system: RAMOS; test: Cell proliferation assay (MTS); assay type: cell-based, human
Procedure: as §1, §2

[36] = system: RPM18226; test: Cell proliferation assay (MTS); assay type: cell-based, human
Procedure: as §1, §4

[37] = system: SNU398; test: Cell proliferation assay (MTS); assay type: cell-based, human
Procedure: as §1, §4

[38] = system: T24; test: Cell proliferation assay (MTS); assay type: cell-based, human
Procedure: as §3, §2

[39] = Homo sapiens, Bladder, PIK3CA WT
[40] = Homo sapiens, Breast, PIK3CA WT
[41] = Homo sapiens, Blood/lymph, PIK3CA WT

In the case of CCn1nc(C2CCN(C(=O)CCO)CC2)nc1-c1cnc(N)c(-c2nnc(C(C)(C)C)o2)n1 [Example 3, 1-(4-(5-(5-amino-6-(5-tert-butyl-1,3,4-oxadiazol-2-yl)pyrazin-2-yl)-1-ethyl-1H-1,2,4-triazol-3-yl)piperidin-1-yl)-3-hydroxypropan-1-one], the tumour growth [1] is reported as “caused some tumour regression”, the Category [2] is reported as “Sensitive (sensitive (GI50<=1.0 μM))” and the GI50 ([2]; Homo sapiens, NCI-H596, Lung, PIK3CA MUT) is reported as 0.302 µM. The Category [3] was “Sensitive (sensitive (GI50<=1.0 μM))”, the GI50 ([3]; Homo sapiens, Rectum, PIK3CA MUT) was 0.393 µM and the Category [4] was “Sensitive (sensitive (GI50<=1.0 μM))”. The GI50 ([4]; Homo sapiens, TCC-SUP, Bladder, PIK3CA MUT) was 0.724 µM, the Category [5] was “Resistant (resistant (GI50>1.0 μM))” and the GI50 ([5]; Homo sapiens, OVCAR-3, Ovary, PIK3CA WT) was 1.18 µM. The Category [6] was “Resistant (resistant (GI50>1.0 μM))”, the GI50 ([6]; Homo sapiens, SK-BR-3, Breast, PIK3CA WT) was 1.59 µM and the Category [7] was “Resistant (resistant (GI50>1.0 μM))”. The GI50 ([7]; Homo sapiens, Lung, PIK3CA WT) was 1.83 µM, the Category [8] was “Resistant (resistant (GI50>1.0 μM))” and the GI50 ([8]; Homo sapiens, NOMO-1, Blood/lymph, PIK3CA WT) was 2.17 µM. For the same compound, the Category [9] was “Resistant (resistant (GI50>1.0 μM))”, the GI50 ([9]; Homo sapiens, BT-20, Breast, PIK3CA MUT) was 2.36 µM and the Category [10] was “Resistant (resistant (GI50>1.0 μM))”. The GI50 ([10]; Homo sapiens, SW-403, Colon, PIK3CA MUT) was 2.61 µM, the Category [11] was “Resistant (resistant (GI50>1.0 μM))” and the GI50 ([11]; Homo sapiens, LNCaP-Clone-FGC, Prostate, PIK3CA WT) was 3.01 µM. For the same compound, the Category [12] was “Resistant (resistant (GI50>1.0 μM))”, the GI50 ([12]; Homo sapiens, MOLP-8, Blood/lymph, PIK3CA WT) was 3.29 µM and the Category [13] was “Resistant (resistant (GI50>1.0 μM))”. The GI50 ([13]; Homo sapiens, DMS-114, Lung, PIK3CA WT) was 3.29 µM, the Category [14] was “Resistant (resistant (GI50>1.0 μM))” and the GI50 ([14]; Homo sapiens, CFPAC-1, Pancreas, PIK3CA WT) was 3.38 µM. For the same compound, the Category [15] was “Resistant (resistant (GI50>1.0 μM))”, the GI50 ([15]; Homo sapiens, Colon, PIK3CA MUT) was 4.32 µM and the Category [16] was “Resistant (resistant (GI50>1.0 μM))”. The GI50 [16, 39] was 5.34 µM, the Category [17] was “Resistant (resistant (GI50>1.0 μM))” and the GI50 ([17]; Homo sapiens, PANC-1, Pancreas, PIK3CA WT) was 5.34 µM. For the same compound, the Category [18] was “Resistant (resistant (GI50>1.0 μM))”, the GI50 [18, 39] was 5.46 µM and the Category [19] was “Resistant (resistant (GI50>1.0 μM))”. For the same compound, the GI50 ([19]; Homo sapiens, Liver, PIK3CA WT) was 8.11 µM, the Category [20] was “Resistant (resistant (GI50>1.0 μM))” and the GI50 ([20]; Homo sapiens, Esophagus, PIK3CA WT) was 9.86 µM. The Category [21] was “Resistant (resistant (GI50>1.0 μM))”, the GI50 [21, 39] was 12.4 µM and the Category [22] was “Resistant (resistant (GI50>1.0 μM))”. For the same compound, the GI50 [22, 40] was 14.5 µM, the Category [23] was “Resistant (resistant (GI50>1.0 μM))” and the GI50 ([23]; Homo sapiens, Calu-1, Lung, PIK3CA WT) was 16 µM. For the same compound, the Category [24] was “Resistant (resistant (GI50>1.0 μM))”, the GI50 ([24]; Homo sapiens, BT-549, Breast, PIK3CA WT) was 17.4 µM and the Category [25] was “Resistant (resistant (GI50>1.0 μM))”. The GI50 [25, 41] was 17.6 µM, the Category [26] was “Resistant (resistant (GI50>1.0 μM))” and the GI50 ([26]; Homo sapiens, Lung, PIK3CA WT) was 18 µM. The Category [27] was “Resistant (resistant (GI50>1.0 μM))”, the GI50 ([27]; Homo sapiens, SNU-5, Stomach, PIK3CA WT) was 21.2 µM and the Category [28] was “Resistant (resistant (GI50>1.0 μM))”. The GI50 [28, 40] was 21.8 µM, the Category [29] was “Resistant (resistant (GI50>1.0 μM))” and the GI50 ([29]; Homo sapiens, MDA-MB-231, Breast, PIK3CA WT) was 23.6 µM. For the same compound, the Category [30] was “Resistant (resistant (GI50>1.0 μM))”, the GI50 ([30]; Homo sapiens, SNU-739, Liver, PIK3CA WT) was 25.9 µM and the Category [31] was “Resistant (resistant (GI50>1.0 μM))”. The GI50 [31, 39] was 30 µM, the Category [32] was “Resistant (resistant (GI50>1.0 μM))” and the GI50 ([32]; Homo sapiens, NCI-H460, Lung, PIK3CA MUT) was 30 µM. For the same compound, the Category [33] was “Resistant (resistant (GI50>1.0 μM))”, the GI50 ([33]; Homo sapiens, NCI-H526, Lung, PIK3CA WT) was 30 µM and the Category [34] was “Resistant (resistant (GI50>1.0 μM))”. For the same compound, the GI50 ([34]; Homo sapiens, JVM-3, Blood/lymph, PIK3CA WT) was 30 µM, the Category [35] was “Resistant (resistant (GI50>1.0 μM))” and the GI50 [35, 41] was 30 µM. The Category [36] was “Resistant (resistant (GI50>1.0 μM))”, the GI50 [36, 41] was 30 µM and the Category [37] was “Resistant (resistant (GI50>1.0 μM))”. For the same compound, the GI50 ([37]; Homo sapiens, SNU-398, Liver, PIK3CA WT) was 30 µM, the Category [38] was “Resistant (resistant (GI50>1.0 μM))” and the GI50 ([38]; Homo sapiens, T-24, Bladder, PIK3CA WT) was 30 µM.
